A word on the half-life: it is the time needed for the level to fall by half in the phase considered. Usually EC50 stands for the concentration that produces a half-maximal response. The IC50 is the point on the concentration scale where inhibition reaches its midpoint.

Data set [1] is described as follows: Stability in presence of trypsin assessed as half life of compound hydrolysis. In kind it is ADME.
Data set [2] has as its target T1, Nociceptin receptor (Rattus norvegicus, UniProt P35370). Description: Activation of rat ORL1 receptor expressed in african green monkey COS7 cells by [35S]GTPgammaS binding assay. In kind it is functional, cell-based, COS-7.
The target of data set [3] is T1, Nociceptin receptor. Description: Displacement of [3H]nociceptin from rat ORL1 receptor expressed in african green monkey COS7 cells. In kind it is cell-based, COS-7.
The nature of data set [4]: Stability in presence of rat brain trypsin assessed compound degradation after 60 mins by HPLC. The settings on record: read-out: Activity. In kind it is ADME.
Data set [5] is described as follows: Stability in presence of rat brain trypsin assessed as half life of compound hydrolysis in presence of trypsin inhibitor bacitracin by HPLC. In kind it is ADME, tissue-based. The settings on record: isolated protein.
Data set [6] can be described thus: Stability in presence of rat brain trypsin assessed as half life of compound hydrolysis by HPLC. In kind it is physicochemical.
Data set [7] has as its target Nociceptin receptor (Rattus norvegicus) (UniProt P35370). Put plainly: Activation of rat ORL1 receptor expressed in african green monkey COS7 cells assessed as stimulation of [35S]GTPgammaS binding relative to nociceptin. In kind it is functional, cell-based. The settings on record: COS-7. (In general: Binding of GTPγS marks nucleotide exchange on a G protein.)

T1 sequence (P35370 whole entry): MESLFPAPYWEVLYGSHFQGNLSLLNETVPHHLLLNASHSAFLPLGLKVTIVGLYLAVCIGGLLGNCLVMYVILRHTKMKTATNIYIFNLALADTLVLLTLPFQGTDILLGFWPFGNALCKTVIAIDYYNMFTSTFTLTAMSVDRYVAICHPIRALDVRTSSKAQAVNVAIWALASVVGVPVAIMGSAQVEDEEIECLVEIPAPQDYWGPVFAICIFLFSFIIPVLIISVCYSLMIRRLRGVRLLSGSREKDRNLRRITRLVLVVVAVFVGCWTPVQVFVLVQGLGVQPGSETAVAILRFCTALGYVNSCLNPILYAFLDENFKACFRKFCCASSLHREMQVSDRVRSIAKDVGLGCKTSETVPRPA
Sequence of Nociceptin receptor (Rattus norvegicus) (P35370 whole entry): as above

`CC(C)C[C@H](NC(=O)[C@H](CCCCN)NC(=O)[C@H](CCCNC(=N)N)NC(=O)[C@H](C)NC(=O)[C@H](CO)NC(=O)[C@H](CCCCN)NC(=O)[C@H](CCCNC(=N)N)NC(=O)[C@H](C)NC(=O)CNC(=O)[C@@H](NC(=O)[C@H](Cc1ccccc1)NC(=O)CNC(=O)CNC(=O)[C@@H](N)Cc1ccccc1)[C@@H](C)O)C(=O)N[C@@H](CCCCN)C(=O)N[C@@H](CC(N)=O)C(=O)N[C@@H](CCC(N)=O)C(=O)O`: the half-life in data set [1] came to 20 min. Further, the midpoint of the response at Nociceptin receptor [2], the EC50, lay at 5.8 nM. On Nociceptin receptor [3], this molecule displayed an IC50 of 0.41 nM.
As for `C[C@H](NC(=O)CNC(=O)[C@@H](NC(=O)[C@H](Cc1ccccc1)NC(=O)CNC(=O)CNC(=O)[C@@H](N)Cc1ccccc1)[C@@H](C)O)C(=O)N[C@@H](CCCN=C(N)N)C(=O)N[C@@H](CCCCN)C(=O)N[C@@H](CO)C(=O)N[C@@H](C)C(=O)N[C@@H](CCCN=C(N)N)C(=O)N[C@@H](CCCCN)C(=O)N[C@@H](Cc1ccc(O)cc1)C(=O)N[C@@H](C)C(=O)N[C@@H](CC(N)=O)C(=O)N[C@@H](CCC(N)=O)C(=O)O`, the 50% effective concentration (EC50) on Nociceptin receptor [2] was 11 nM. Further, on Nociceptin receptor [3], the IC50 was determined as 1.1 nM.
Turning to `C[C@H](NC(=O)CNC(=O)[C@@H](NC(=O)[C@H](Cc1ccccc1)NC(=O)CNC(=O)CNC(=O)[C@@H](N)Cc1ccccc1)[C@@H](C)O)C(=O)N[C@@H](CCCN=C(N)N)C(=O)N[C@@H](CCCCN)C(=O)N[C@@H](CO)C(=O)N[C@@H](C)C(=O)N[C@@H](CCCN=C(N)N)C(=O)N[C@@H](CCCCN)C(=O)N[C@@H](CCCN=C(N)N)C(=O)N[C@@H](CCCCN)C(=O)N[C@@H](CC(N)=O)C(=O)N[C@@H](CCC(N)=O)C(=O)O`, the half-life in data set [1] was 30 min; in data set [6], 600 min. In addition, the metabolised at 1 h in data set [4] was less than 10%. The same molecule returned an EC50 on Nociceptin receptor [2] of 1.1 nM. Also, the Stability entry in data set [5] is “Stable”. On Nociceptin receptor [3], this molecule registered an IC50 of 0.21 nM.
Take `C[C@H](NC(=O)CNC(=O)[C@@H](NC(=O)[C@H](Cc1ccccc1)NC(=O)CNC(=O)CNC(=O)[C@@H](N)Cc1ccccc1)[C@@H](C)O)C(=O)N[C@@H](CCCNC(=N)N)C(=O)N[C@@H](CCCCN)C(=O)N[C@@H](CO)C(=O)N[C@@H](C)C(=O)N[C@@H](CCCNC(=N)N)C(=O)N[C@@H](CCCCN)C(=O)N[C@@H](CCCNC(=N)N)C(=O)N[C@@H](CCCCN)C(=O)N[C@@H](CC(N)=O)C(=O)N[C@@H](CCC(N)=O)C(=O)O`: in data set [7], the Activity came out at 10%.
For `CC(C)C[C@H](NC(=O)[C@H](CCCCN)NC(=O)[C@H](CCCN=C(N)N)NC(=O)[C@H](C)NC(=O)[C@H](CO)NC(=O)[C@H](CCCCN)NC(=O)[C@H](CCCN=C(N)N)NC(=O)[C@H](C)NC(=O)CNC(=O)[C@@H](NC(=O)[C@H](Cc1ccccc1)NC(=O)CNC(=O)CNC(=O)[C@@H](N)Cc1ccccc1)[C@@H](C)O)C(=O)N[C@@H](C)C(=O)N[C@@H](CC(N)=O)C(=O)N[C@@H](CCC(N)=O)C(=O)O` [NOCICEPTIN], the results for the half-life in data set [1] and in data set [6] were 13 min and 480 min, respectively. For the same molecule, the metabolised at 1 h in data set [4] was 10%. For the same molecule, the Stability result in data set [5] was “Stable”.
“H-FGGFTGARKRKRKLANQ-OH [listing 1 of 2 here]” came in with an EC50 at Nociceptin receptor [2] of 86 nM. At Nociceptin receptor [3], the IC50 came to 0.94 nM.
In the case of “H-FGGFTGARKRKRKLANQ-OH [listing 2 of 2 here]”, the Activity in data set [7] was greater than 90%.
The molecule H-FGGFTGARKSARKAANQ-OH came in with an EC50 at Nociceptin receptor [2] of 11 nM. The same molecule had an IC50 on Nociceptin receptor [3] of 1.5 nM.
For H-FGGFTGARKSARKFANQ-OH the same measures were 9 nM and 1.1 nM.
For H-FGGFTGARKSARKKANQ-OH the same measures were 4.1 nM and 0.41 nM.
For H-FGGFTGARKSARKKKNQ-OH the same measures were 1.1 nM and 0.16 nM.
In the case of H-FGGFTGARKSARKKRNQ-OH, on Nociceptin receptor [2], a half-maximal effect (EC50) was put at 1.3 nM. The molecule also gave an IC50 on Nociceptin receptor [3] of 0.21 nM.
H-FGGFTGARKSARKLARK-OH: the midpoint of the response on Nociceptin receptor [2], the EC50, lay at 2.7 nM. In addition, on Nociceptin receptor [3], the IC50 is 0.54 nM.
On Nociceptin receptor [2], H-FGGFTGARKSARKLFNQ-OH registered an EC50 of 12 nM. The molecule also gave an IC50 on Nociceptin receptor [3] of 1 nM.
For H-FGGFTGARKSARKLLNQ-OH the same measures were 10 nM and 0.48 nM.
On the same counts, the results for H-FGGFTGARKSARKLRNQ-OH are 3.2 nM and 0.31 nM.
For H-FGGFTGARKSARKLVNQ-OH the same measures were 30 nM and 2.2 nM.
H-FGGFTGARKSARKLWNQ-OH returned a concentration giving a half-maximal response (EC50) on Nociceptin receptor [2] of 50 nM. Besides, at Nociceptin receptor [3], the IC50 came to 2.1 nM.
On the same counts, the results for H-FGGFTGARKSARKLYNQ-OH are 33 nM and 1 nM.
Turning to H-FGGFTGARKSARKRANQ-OH, the half-life in data set [1] was found to be 23 min. Moreover, the EC50 on Nociceptin receptor [2] is 4 nM. In addition, the IC50 on Nociceptin receptor [3] is 0.33 nM.
As for H-FGGFTGARKSARKRKRK-OH, at Nociceptin receptor [2], the EC50 worked out at 2.3 nM. Besides, the IC50 at Nociceptin receptor [3] turned out to be 0.42 nM.
On the same counts, the results for H-FGGFTGARKSARKRRNQ-OH are 0.98 nM and 0.27 nM.
For H-FGGFTGARKSARKVANQ-OH the same measures were 15 nM and 1.1 nM.
As to H-FGGFTGARKSARKWANQ-OH, the response on Nociceptin receptor [2] was half-maximal at 5.8 nM (EC50). At Nociceptin receptor [3], the IC50 is 0.41 nM.
On Nociceptin receptor [2], “H-FGGFTRKRKSARKLANQ-OH [listing 1 of 2 here]” displayed an EC50 of 870 nM. On Nociceptin receptor [3], the IC50 came to 13 nM.
Regarding “H-FGGFTRKRKSARKLANQ-OH [listing 2 of 2 here]”, the Activity in data set [7] was 60%.

These data come from ChEMBL document CHEMBL1142464, “Synergistic effect of basic residues at positions 14-15 of nociceptin on binding affinity and receptor activation” (Bioorg Med Chem, 2008).
